Test results as given in patent US6737383B1, “Herbicidal oxadiazolidines” (priority 1999, dated 2004).

Tests used:
[1] = system: rape; test: Test B pre/postemergence rape; assay type: in vivo, Brassica napus
How it was run: (§1)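 Herbicidal effect was estimated by eye on a ten-point control scale after plants spent twelve to sixteen days in a greenhouse following soil or foliar treatment. Foliar sprays targeted plants at one to four leaves; all doses were formulated in a non-phytotoxic solvent with surfactant.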

[2] = system: purple nutsedge; test: Test B pre/postemergence purple nutsedge; assay type: in vivo, Cyperus rotundus
How it was run: as §1

[3] = system: sugar beet; test: Test B pre/postemergence sugar beet; assay type: in vivo, Beta vulgaris
How it was run: as §1

[4] = system: blackgrass; test: Test B pre/postemergence blackgrass; assay type: in vivo, Alopecurus myosuroides
How it was run: as §1

[5] = system: smallflower flatsedge; test: Test B flood test smallflower flatsedge; assay type: in vivo, Cyperus difformis
How it was run: (§2)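 Read-out is a visual response score from 0 (no effect) to 10 (complete control), assigned by comparison with untreated controls. Treatment was applied at the 2-leaf stage, and plants stayed in the greenhouse for twelve to sixteen days before scoring.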

[6] = system: morningglory; test: Test B pre/postemergence morningglory; assay type: in vivo, Ipomoea hederacea
How it was run: as §1

[7] = system: wild oat; test: Test B pre/postemergence wild oat; assay type: in vivo, Avena fatua
How it was run: as §1

[8] = system: wheat; test: Test B pre/postemergence wheat; assay type: in vivo, Triticum aestivum
How it was run: as §1

[9] = system: giant foxtail; test: Test B pre/postemergence giant foxtail; assay type: in vivo, Setaria faberii
How it was run: as §1

[10] = system: crabgrass; test: Test B pre/postemergence crabgrass; assay type: in vivo, Digitaria sanguinalis
How it was run: as §1

[11] = system: bamyardgrass; test: Test B flood test barnyardgrass; assay type: in vivo, Echinochloa crus-galli
How it was run: as §2

[12] = system: rice; test: Test B flood test rice; assay type: in vivo, Oryza sativa
How it was run: as §2

[13] = system: velvetleaf; test: Test B pre/postemergence velvetleaf; assay type: in vivo, Abutilon theophrasti
How it was run: as §1

[14] = system: cocklebur; test: Test B pre/postemergence cocklebur; assay type: in vivo, Xanthium strumarium
How it was run: as §1

[15] = system: pigweed; test: Test B pre/postemergence pigweed; assay type: in vivo, Amaranthus retroflexus
How it was run: as §1

[16] = system: surinam grass; test: Test B pre/postemergence surinam grass; assay type: in vivo, Brachiaria decumbens
How it was run: as §1

[17] = Postemergence, Rate 125 g/ha, scale of 0 to 10 where 0 is no effect and 10 is complete control
[18] = Postemergence, Rate 250 g/ha, scale of 0 to 10, 0 is no effect, 10 is complete control
[19] = Postemergence, Rate 500 g/ha, scale of 0 to 10 where 0 is no effect and 10 is complete control
[20] = Postemergence, Rate 1000 g/ha, scale 0 to 10 (0 no effect, 10 complete control)
[21] = Preemergence, Rate 125 g/ha, scale of 0 to 10 where 0 is no effect and 10 is complete control
[22] = Preemergence, Rate 250 g/ha, scale 0 to 10 (0 no effect, 10 complete control)
[23] = Preemergence, Rate 500 g/ha, scale of 0 to 10 where 0 is no effect and 10 is complete control
[24] = Rate 1000 g/ha, Preemergence, scale 0 to 10 (0 no effect, 10 complete control)
[25] = Pre-emergence, Rate 1000 g/ha, scale 0 to 10 (0 no effect, 10 complete control)
[26] = Rate 125 g/ha, under heading Pre-emergence, flood test species, visual evaluation after twelve to sixteen days
[27] = Rate 250 g/ha, Pre-emergence (flood test species), scale 0 to 10, 0 is no effect, 10 is complete control
[28] = Rate 500 g/ha, Pre-emergence section of Table B, 0 to 10 scale (0 no effect, 10 complete control)

With COC(=O)C(C)n1c(=O)on(C(=O)N(c2ccc(Cl)cc2)C(C)C)c1=O (centres unmarked) [Compound 623] the “Plant response rating, Rape” value [1, 17] was 0, the “Rape plant response rating” value [1, 18] was 0 and the “Plant response rating, Rape” value [1, 19] was 0. For the same compound, the “Rape plant response rating” value [1, 20] was 0, the “Rape plant response rating” value [1, 21] was 0 and the “Plant response rating, Rape” value [1, 22] was 0. For the same compound, the “Plant response rating, Rape” value [1, 23] was 2, the “Plant response rating, Rape” value [1, 24] was 2 and the “Plant response rating, Nutsedge” value [2, 17] was 0. For the same compound, the “Nutsedge plant response rating” value [2, 18] was 0, the “Nutsedge plant response rating” value [2, 21] was 0 and the “Plant response rating, Nutsedge” value [2, 22] was 0. For the same compound, the “Plant response rating, Nutsedge” value [2, 23] was 0, the “Plant response rating, Nutsedge” value [2, 24] was 0 and the “Plant response rating, Sugarbeets” value [3, 17] was 0. The “Sugarbeets plant response rating” value [3, 18] was 0, the “Sugarbeets plant response rating” value [3, 20] was 0 and the “Sugarbeets plant response rating” value [3, 21] was 0. The “Plant response rating, Sugarbeets” value [3, 22] was 0, the “Plant response rating, Sugarbeets” value [3, 23] was 2 and the “Plant response rating, Sugarbeets” value [3, 24] was 7. For the same compound, the “Plant response rating, Blackgrass” value [4, 17] was 3, the “Blackgrass plant response rating” value [4, 18] was 4 and the “Plant response rating, Blackgrass” value [4, 19] was 6. The “Blackgrass plant response rating” value [4, 20] was 7, the “Blackgrass plant response rating” value [4, 21] was 0 and the “Plant response rating, Blackgrass” value [4, 22] was 0. For the same compound, the “Plant response rating, Blackgrass” value [4, 24] was 2, the “S. Flatsedge plant response rating” value [5, 25] was 0 and the “S. Flatsedge plant response rating (0 to 10 scale, 0 is no effect, 10 is complete control)” value [5, 26] was 0. For the same compound, the “S. Flatsedge plant response rating” value [5, 27] was 0, the “S. Flatsedge plant response rating” value [5, 28] was 0 and the “Plant response rating, Morningglory” value [6, 17] was 6. For the same compound, the “Morningglory plant response rating” value [6, 18] was 8, the “Plant response rating, Morningglory” value [6, 19] was 10 and the “Morningglory plant response rating” value [6, 20] was 10. The “Morningglory plant response rating” value [6, 21] was 0, the “Plant response rating, Morningglory” value [6, 22] was 0 and the “Plant response rating, Morningglory” value [6, 23] was 0. For the same compound, the “Plant response rating, Morningglory” value [6, 24] was 0, the “Plant response rating, Wild oats” value [7, 17] was 0 and the “Wild oats plant response rating” value [7, 18] was 0. For the same compound, the “Wild oats plant response rating” value [7, 20] was 2, the “Wild oats plant response rating” value [7, 21] was 0 and the “Plant response rating, Wild oats” value [7, 22] was 0. The “Plant response rating, Wild oats” value [7, 23] was 2, the “Plant response rating, Wild oats” value [7, 24] was 2 and the “Plant response rating, Wheat” value [8, 17] was 0. For the same compound, the “Wheat plant response rating” value [8, 18] was 1, the “Wheat plant response rating” value [8, 20] was 1 and the “Wheat plant response rating” value [8, 21] was 0. For the same compound, the “Plant response rating, Wheat” value [8, 22] was 0, the “Plant response rating, Wheat” value [8, 23] was 0 and the “Plant response rating, Wheat” value [8, 24] was 3. For the same compound, the “Plant response rating, Giant foxtail” value [9, 17] was 0, the “Giant foxtail plant response rating” value [9, 18] was 0 and the “Plant response rating, Giant foxtail” value [9, 19] was 0. For the same compound, the “Giant foxtail plant response rating” value [9, 20] was 2, the “Giant foxtail plant response rating” value [9, 21] was 7 and the “Plant response rating, Giant foxtail” value [9, 22] was 8. The “Plant response rating, Giant foxtail” value [9, 23] was 9, the “Plant response rating, Giant foxtail” value [9, 24] was 9 and the “Plant response rating, Crabgrass” value [10, 17] was 0. For the same compound, the “Crabgrass plant response rating” value [10, 18] was 0, the “Plant response rating, Crabgrass” value [10, 19] was 0 and the “Crabgrass plant response rating” value [10, 20] was 3. The “Crabgrass plant response rating” value [10, 21] was 0, the “Plant response rating, Crabgrass” value [10, 22] was 0 and the “Plant response rating, Crabgrass” value [10, 24] was 0. For the same compound, the “Barnyardgrass plant response rating” value [11, 25] was 0, the “Barnyardgrass plant response rating (0 to 10 scale, 0 is no effect, 10 is complete control)” value [11, 26] was 0 and the “Barnyardgrass plant response rating” value [11, 27] was 0. The “Barnyardgrass plant response rating” value [11, 28] was 0, the “Rice plant response rating” value [12, 25] was 0 and the “Rice plant response rating (0 to 10 scale, 0 is no effect, 10 is complete control)” value [12, 26] was 0. For the same compound, the “Rice plant response rating” value [12, 27] was 0, the “Rice plant response rating” value [12, 28] was 0 and the “Plant response rating, Velvetleaf” value [13, 17] was 0. For the same compound, the “Velvetleaf plant response rating” value [13, 18] was 0, the “Velvetleaf plant response rating” value [13, 20] was 2 and the “Velvetleaf plant response rating” value [13, 21] was 0. The “Plant response rating, Velvetleaf” value [13, 22] was 0, the “Plant response rating, Velvetleaf” value [13, 23] was 0 and the “Plant response rating, Velvetleaf” value [13, 24] was 0. The “Plant response rating, Cocklebur” value [14, 17] was 0, the “Cocklebur plant response rating” value [14, 18] was 0 and the “Plant response rating, Cocklebur” value [14, 19] was 0. The “Cocklebur plant response rating” value [14, 20] was 0, the “Cocklebur plant response rating” value [14, 21] was 0 and the “Plant response rating, Cocklebur” value [14, 22] was 0. For the same compound, the “Plant response rating, Cocklebur” value [14, 23] was 0, the “Plant response rating, Cocklebur” value [14, 24] was 0 and the “Plant response rating, Redroot pigweed” value [15, 17] was 0. For the same compound, the “Redroot pigweed plant response rating” value [15, 18] was 0, the “Redroot pigweed plant response rating” value [15, 20] was 5 and the “Redroot pigweed plant response rating” value [15, 21] was 0. For the same compound, the “Plant response rating, Redroot pigweed” value [15, 22] was 0, the “Plant response rating, Redroot pigweed” value [15, 23] was 0 and the “Plant response rating, Redroot pigweed” value [15, 24] was 5. The “Plant response rating, B. signalgrass” value [16, 17] was 0, the “B. signalgrass plant response rating” value [16, 18] was 0 and the “Plant response rating, B. signalgrass” value [16, 19] was 0. The “B. signalgrass plant response rating” value [16, 20] was 0, the “B. signalgrass plant response rating” value [16, 21] was 0 and the “Plant response rating, B. signalgrass” value [16, 22] was 0. For the same compound, the “Plant response rating, B. signalgrass” value [16, 23] was 2 and the “Plant response rating, B. signalgrass” value [16, 24] was 4.
